PMC9973354 (mBio, 2022)
Like-named read-outs stand apart in the source and are kept apart here. Starred links: 1 amine or outer side, 2 acyl side, 3 side chain; linkers in the order of their positions; H or OH if unused. Positions of bridges follow the written chain, without caps; N, C: chain ends. Non-standard residues stand in square brackets, D forms with d. Residues, ends and D or L forms follow the SMILES beside them. ξ: configuration not given here. X1 = O=C([C@@H]1CCN=C2C(N[*:1])=Cc3cc(O)c(O)cc3N21)[*:2]; ξOrn(N(OH)CHO) = NC(CCCN(O)C=O)C(=O)O; Suc = O=C(CCC(=O)[*:2])[*:1]; ξK = NCCCCC(N)C(=O)O; ξS = NC(CO)C(=O)O

Columns and labels:
FpvB = assay: Western blot of FLAG-tagged FpvB expression after compound treatment; type: cell-based, Pseudomonas aeruginosa; details: WT PA14 fpvB-FLAG; 10 μg/mL siderophores, 64 μg/mL DSX, 10:90
PA14 ΔfpvA ΔfpvB mutant = assay: Growth curves with DSX and siderophores, ΔfpvA ΔfpvB; type: cell-based, Pseudomonas aeruginosa; details: 20 h
Experimental: (§1) Supplementary file : FIG S1 (A) FpvB is expressed in WT PA14 and the ΔfpvA mutant grown in 10:90. PilF was used as a loading control for outer membrane proteins. (B) FpvA is expressed from WT PA14 grown in 10:90. […] PilF was used as a loading control for outer membrane proteins. (C) Growth curves of PA14 and mutants with DSX and different siderophores in 10:90. PA14, ΔfpvA, ΔfpvB, ΔfpvA ΔfpvB, and ΔpvdA ΔpchA strain growth. Blue indicates control, purple indicates treatment with 64 μg/mL DSX, yellow indicates treatment with 10 μg/mL pyoverdine (PA14), and red indicates treatment with 64 μg/mL DSX and 10 μg/mL pyoverdine (PA14). (D) ΔfpvA, ΔfpvA ΔfpvB, and ΔpvdA ΔpchA strain growth. Blue indicates control, purple indicates treatment with 64 μg/mL DSX, grey indicates treatment with 10 μg/mL ferrichrome, and red indicates treatment with 64 μg/mL DSX and 10 μg/mL ferrichrome. (E) ΔfpvA, ΔfpvA ΔfpvB, and ΔpvdA ΔpchA strain growth. […] Download FIG S1, EPS file, 8.5 MB.
(§2) Another explanation for the susceptibility of the ΔfpvA mutant to DSX is that the mutant produces less pyoverdine compared to WT cells due to loss of the signaling cascade that controls siderophore production in response to its binding to FpvA ([25]). To differentiate whether the fpvA mutant was susceptible to DSX because of reduced pyoverdine production or because FpvB was a poor pyoverdine transporter, we treated the WT, ΔfpvA, ΔfpvB, and ΔfpvA ΔfpvB strains with DSX (64 μg/mL) without and with exogenous pyoverdine (10 μg/mL) for 20 h (Fig. 1; see also Fig. S1C). Growth of the ΔfpvA mutant should be restored if there are functional pyoverdine transporters. […] The growth of the ΔfpvA ΔfpvB mutant was inhibited by DSX and pyoverdine, confirming previously published results ([18]).
(§3) As a control, a ΔpvdA ΔpchA mutant unable to make pyoverdine and pyochelin was also tested. Growth of this mutant was inhibited by DSX.

PA14 ΔfpvA mutant = assay: Growth curves with DSX and siderophores, ΔfpvA; type: cell-based, Pseudomonas aeruginosa; details: 20 h; for growth with siderophore in the presence of DSX: 64 μg/mL DSX + 10 μg/mL siderophore
Experimental: as §1, §2, §3

FpvB R648C = biological target: T1, FpvB R648C (Pseudomonas aeruginosa, UniProt A0A0H2ZFZ5, R648C); assay: Fluorescence recovery assay (siderophore uptake by FpvB); type: cell-based
T1 sequence (A0A0H2ZFZ5 23-802 R648C): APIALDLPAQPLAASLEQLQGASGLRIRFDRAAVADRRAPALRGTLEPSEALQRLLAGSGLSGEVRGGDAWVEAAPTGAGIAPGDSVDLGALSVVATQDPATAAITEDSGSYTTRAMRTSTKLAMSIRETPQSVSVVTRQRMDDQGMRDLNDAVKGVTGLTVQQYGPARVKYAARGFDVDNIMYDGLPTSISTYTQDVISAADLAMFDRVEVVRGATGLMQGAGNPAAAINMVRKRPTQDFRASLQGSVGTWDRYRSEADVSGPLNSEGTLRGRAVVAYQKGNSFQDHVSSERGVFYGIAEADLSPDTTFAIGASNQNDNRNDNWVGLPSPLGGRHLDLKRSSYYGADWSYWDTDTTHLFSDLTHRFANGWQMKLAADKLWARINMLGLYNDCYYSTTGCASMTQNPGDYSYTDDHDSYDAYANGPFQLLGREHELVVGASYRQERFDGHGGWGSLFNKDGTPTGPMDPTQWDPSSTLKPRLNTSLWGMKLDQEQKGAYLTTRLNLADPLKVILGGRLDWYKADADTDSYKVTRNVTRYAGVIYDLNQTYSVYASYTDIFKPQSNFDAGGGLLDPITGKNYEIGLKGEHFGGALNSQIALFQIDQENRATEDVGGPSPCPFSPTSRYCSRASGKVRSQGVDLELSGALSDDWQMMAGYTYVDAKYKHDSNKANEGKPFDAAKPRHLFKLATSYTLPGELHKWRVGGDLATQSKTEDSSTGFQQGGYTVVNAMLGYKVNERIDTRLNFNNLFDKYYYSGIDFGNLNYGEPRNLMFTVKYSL
Experimental: Cells were equilibrated for 5 min prior to introduction of the siderophores. Fluorescence was recorded every min for 1 h. Carbonyl cyanide m-chlorophenylhydrazone (CCCP) was used as a control to inhibit fluorescence recovery through dissipation of the proton motive force (PMF) ([2], [3]), which is required for uptake.
Cells were cultured overnight in LB with carbenicillin (200 μg/mL) at 37°C with shaking at 200 rpm. Cells were subcultured (1:200 dilution) in 10:90 plus 2% arabinose for 4 h without carbenicillin at 37°C with shaking at 200 rpm. Cells were harvested by centrifugation for 5 min and 6,000 × g and resuspended in sterile 1× phosphate-buffered saline (PBS) (pH 7.4); 1× PBS was made from a 10× stock (80 g NaCl, 2 g KCl, 26.8 g Na2 HPO4-7H2O, 2.4 g KH2PO4 in 1 L of deionized H2O) with 10 μM Alexa Fluor 594 C5 maleimide for microscopy or fluorescein-5-maleimide for fluorescence quenching and recovery assays and incubated in the dark at […] for 30 min on a shaking incubator at 37°C (200 rpm). Excess dye was quenched with 1 mM dithiothreitol (DTT) (Sigma) to stop the reaction. Cells were washed 3× with PBS. For fluorescence recovery assays, cells were incubated with 1× PBS plus 0.4% glucose at 37°C with shaking at 200 rpm. […] Cells were spun down and washed 3× with 1× PBS and resuspended in 1× PBS for quenching assays and 1× PBS plus 0.4% glucose for fluorescence recovery assays.
For fluorescence quenching and recovery assays, cells were diluted to an OD600 of 0.1 for both types of assays, and 148 μL was added into wells of a 96-well black plate (Corning). Fluorescence was recorded for 5 min at 1-min intervals at 37°C (BioTek Neo; excitation, 494 nm; emission, 520 nm). […] Fluorescence was recorded immediately for quenching assays and for 1 h at 1-min intervals for fluorescence recovery assays. Background fluorescence was subtracted from all fluorescence readings and 1-F/F0 was used to calculate the degree of quenching, where F0 is the initial fluorescence. Kd was calculated using GraphPad Prism using a one-site specific binding model or a two-site model. […]

PA14 ΔpvdA ΔpchA mutant = assay: Growth curves with DSX and siderophores, ΔpvdA ΔpchA; type: cell-based, Pseudomonas aeruginosa; details: 64 μg/mL DSX + 10 μg/mL siderophore, 20 h
Experimental: as §1, §3

In the case of NCCCCC(NC(=O)C(CO)NC(=O)[C@@H]1CCN=C2C(NC(=O)CCC(=O)O)=Cc3cc(O)c(O)cc3N21)C(=O)NCC(=O)NC(CCCN(O)C=O)C(=O)NC1CCCCNC(=O)C(CO)NC(=O)C(CCCN(O)C=O)NC1=O (some centres unmarked) [pyoverdine] (Suc-[X1][ξS][ξK]G[ξOrn(N(OH)CHO)][ξK][ξOrn(N(OH)CHO)][ξS]; lactam 6-C), the “stimulation of FpvB expression” value (FpvB) is reported as “None of the compounds stimulated expression”, the growth versus control (PA14 ΔfpvA ΔfpvB mutant; DSX 64 μg/mL, pyoverdine 10 μg/mL) is reported as “inhibited” and the “growth with siderophore in the presence of DSX” value (“growth with siderophore” for short) (PA14 ΔfpvA mutant) is reported as “restored growth compared to DSX alone”. The growth versus control (PA14 ΔfpvA mutant; DSX 64 μg/mL or pyoverdine 10 μg/mL alone, 10:90) was “delayed growth”, the fluorescence recovery (FpvB R648C; siderophore at 1/2 Kd (1/2 Kd2 for ferrioxamine B), recorded for 1 h) was “no recovery” and the “growth with siderophore” value (PA14 ΔpvdA ΔpchA mutant) was “restored growth”.

With CC(=O)N(O)CCCCCNC(=O)CCC(=O)N(O)CCCCCNC(=O)CCC(=O)N(O)CCCCCN [ferrioxamine B] the “stimulation of FpvB expression” value (FpvB) was “None of the compounds stimulated expression”, the “growth with siderophore” value (PA14 ΔfpvA ΔfpvB mutant; 64 μg/mL DSX + 10 μg/mL siderophore) was “rescued growth” and the “growth with siderophore” value (PA14 ΔfpvA mutant) was “rescued growth”. For the same molecule, the fluorescence recovery (FpvB R648C) was ~ 50 % of the control and the “growth with siderophore” value (PA14 ΔpvdA ΔpchA mutant) was “rescued growth”.
